Assay type in all cases: in vivo
The subject of one assay is Geranium. As to the kind of experiment: Shelf life after low-concentration spray (Example 9). As to conditions: EthylBloc powder in distilled water. The text has this: (§1) Spray liquid was EthylBloc™ powder (contains 0.14% by weight 1-MCP, plus alpha-cyclodextrin and dextrose, obtained from Floralife Inc.) in distilled water. The shelf lives of sprayed and non-sprayed control plants were observed, with the following results: […]

Another assay concerns Impatiens. The assay is described as above. As to conditions: EthylBloc powder in distilled water.
Text: as §1

For the next assay, the system named is New Guinea Impatiens. The assay is described as above. As to conditions: EthylBloc powder in distilled water.
Text: as §1

For another assay, the system named is nursery plants. The assay can be described thus: Nursery plants, reassessment after 4 weeks in greenhouse (Example 10). As to conditions: 50 mg/L of 1-MCP; after 4 weeks in a greenhouse. The protocol: A range of nursery plants that often show quality problems during shipping were chosen including Datura (tropical), Mini-rose, Delphinium (sun perennial), Verbena (sun perennial), Asclepias (sun perennial), Delosperma (groundcover), Myosotis (shade perennial) and Primula (shade perennial).
Spray liquid had 50 mg/L of 1-MCP. Sprayed and unsprayed control plants, all of which were blooming, were packed in boxes according to standard procedures and shipped under commercial conditions. After 5 days plants were unpacked and given a quality rating, from 0 (poor) to 2 (good). Results were as follows:
After the above observations, the plants were placed in a greenhouse for 4 weeks and assessed again.

For `CC1=CC1` [1-MCP, 1-methylcyclopropene], the “Shelf Life” value worked out at 3 days in the assay on Geranium (1-MCP 0.03 mg/L); 4 days with Geranium (1-MCP 0.32 mg/L); 3 days in the assay with Impatiens (1-MCP 0.03 mg/L); 5 days in the assay on Impatiens (1-MCP 0.32 mg/L); 4 days in the assay with New Guinea Impatiens (1-MCP 0.03 mg/L); 7 days in the assay on New Guinea Impatiens (1-MCP 0.32 mg/L). Besides, the “assessment of sprayed plants vs control” value with nursery plants is “typically larger, greener, and healthier”.

The values above are taken from patent publication US20110034335A1, “Treatment of Ornamental Plants” (priority 2009, published 2011).
